Measurements reported in ChEMBL document CHEMBL5625221, “Discovery of indolinone-bearing benzenesulfonamides as new dual carbonic anhydrase and VEGFR-2 inhibitors possessing anticancer and pro-apoptotic properties” (Eur J Med Chem, 2023).

How the values were obtained:
Carbonic anhydrase 9 = Carbonic anhydrase 9 (Homo sapiens, UniProt Q16790); assay: Inhibition of human carbonic anhydrase 9 assessed as inhibition constant preincubated for 15 mins by phenol red dye based stopped flow CO2 hydration assay
HCT-116 = assay: cells; details: Homo sapiens, HCT-116, 48 h
Description: Antiproliferative activity against human HCT-116 cells assessed as inhibition of cell growth incubated for 48 hrs by WST-1 reagent based ELISA

MCF7 [1] = assay: cells; details: Homo sapiens, MCF7, 48 h
Description: Antiproliferative activity against human MCF7 cells assessed as inhibition of cell growth incubated for 48 hrs by WST-1 reagent based ELISA

[2] = target: Vascular endothelial growth factor receptor 2 (Homo sapiens, UniProt P35968); assay: Inhibition of VEGFR-2 (unknown origin) using biotinylated poly(Glu-Tyr) at 4:1 ratio as substrate in presence of ATP incubated for 5 mins by ELISA
Vascular endothelial growth factor receptor 2, sequence (P35968 whole entry): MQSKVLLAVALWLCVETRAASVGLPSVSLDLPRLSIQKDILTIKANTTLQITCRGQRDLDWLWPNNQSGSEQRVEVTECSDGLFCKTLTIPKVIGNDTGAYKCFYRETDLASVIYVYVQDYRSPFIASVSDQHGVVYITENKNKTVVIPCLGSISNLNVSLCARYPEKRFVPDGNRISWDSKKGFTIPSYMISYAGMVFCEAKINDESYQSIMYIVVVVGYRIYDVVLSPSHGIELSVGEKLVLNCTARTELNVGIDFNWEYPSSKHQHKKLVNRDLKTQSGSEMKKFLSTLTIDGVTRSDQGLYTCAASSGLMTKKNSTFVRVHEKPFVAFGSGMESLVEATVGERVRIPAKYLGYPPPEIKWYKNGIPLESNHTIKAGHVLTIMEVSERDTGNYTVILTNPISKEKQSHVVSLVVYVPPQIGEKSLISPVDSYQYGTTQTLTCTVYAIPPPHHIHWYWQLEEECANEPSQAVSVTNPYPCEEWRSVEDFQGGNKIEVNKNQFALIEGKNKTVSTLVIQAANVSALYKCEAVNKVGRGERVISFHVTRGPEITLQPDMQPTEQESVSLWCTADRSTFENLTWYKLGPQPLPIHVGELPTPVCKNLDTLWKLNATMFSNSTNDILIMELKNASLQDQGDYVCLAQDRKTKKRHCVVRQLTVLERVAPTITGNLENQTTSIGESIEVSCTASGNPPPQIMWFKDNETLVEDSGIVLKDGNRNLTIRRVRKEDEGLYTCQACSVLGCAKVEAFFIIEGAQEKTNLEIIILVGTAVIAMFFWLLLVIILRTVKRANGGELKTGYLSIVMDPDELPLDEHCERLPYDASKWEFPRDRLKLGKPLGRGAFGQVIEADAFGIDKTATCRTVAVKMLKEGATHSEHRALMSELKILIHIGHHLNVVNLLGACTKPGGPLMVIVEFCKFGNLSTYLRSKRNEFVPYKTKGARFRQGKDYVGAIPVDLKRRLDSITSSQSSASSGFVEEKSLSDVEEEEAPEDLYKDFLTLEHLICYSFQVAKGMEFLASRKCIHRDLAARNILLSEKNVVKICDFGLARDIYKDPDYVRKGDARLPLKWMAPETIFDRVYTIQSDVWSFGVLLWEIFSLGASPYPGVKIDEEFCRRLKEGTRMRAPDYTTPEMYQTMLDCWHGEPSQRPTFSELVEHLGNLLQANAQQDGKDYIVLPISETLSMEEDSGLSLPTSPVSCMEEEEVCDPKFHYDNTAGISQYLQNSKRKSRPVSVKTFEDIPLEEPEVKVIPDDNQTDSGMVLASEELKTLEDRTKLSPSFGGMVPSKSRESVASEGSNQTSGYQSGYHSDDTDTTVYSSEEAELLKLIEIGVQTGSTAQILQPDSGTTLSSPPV

MDA-MB-231 [3] = assay: cells; details: Homo sapiens, MDA-MB-231, 48 h
Description: Antiproliferative activity against human MDA-MB-231 cells assessed as inhibition of cell growth incubated for 48 hrs by MTT reagent based ELISA

MCF7 [4] = assay: cells; details: Homo sapiens, MCF7, 48 h; remark: listed apart in the source
Description: Antiproliferative activity against human MCF7 cells assessed as inhibition of cell growth incubated for 48 hrs by MTT reagent based ELISA

MDA-MB-231 [5] = assay: Induction of apoptosis in human MDA-MB-231 cells assessed as Bax protein level incubated for 24 hrs by ELISA; format: functional
MDA-MB-231 [6] = assay: Induction of apoptosis in human MDA-MB-231 cells assessed as BCL-2 protein level incubated for 24 hrs by ELISA; format: functional
MDA-MB-231 [7] = assay: Induction of apoptosis in human MDA-MB-231 cells assessed as active caspase-3 protein level incubated for 24 hrs by ELISA; format: functional
MDA-MB-231 [8] = assay: Induction of apoptosis in human MDA-MB-231 cells assessed as decrease in BCL-2 protein level incubated for 24 hrs by ELISA relative to control; format: functional; design: scale not given: the % may be the effect or the level left
Caco-2 = assay: cells; details: Homo sapiens, Caco-2, 24 h
Description: Antiproliferative activity against human Caco-2 cells assessed as inhibition of cell growth incubated for 24 hrs by MTS assay

Row | SMILES | Ki (Carbonic anhydrase 9) [µM] | further results
1 | NS(=O)(=O)c1ccc(CC/N=C2\C(=O)Nc3ccc(Cl)cc32)cc1 | 0.0287 | IC50 (HCT-116): 3.67 µM; IC50 (MCF7 [1]): 23.9 µM
2 | CC(C(=O)Nc1ccc(S(N)(=O)=O)cc1)N1CCCC(C(=O)N/N=C2\C(=O)Nc3cc([N+](=O)[O-])ccc32)C1 (centres undefined) | 0.0294 | 
3 | COc1ccc2c(c1)NC(=O)C2=NNC(=O)C1CCCN(C(C)C(=O)Nc2ccc(S(N)(=O)=O)cc2)C1 (centres undefined) | 0.0042 | IC50 [2]: 0.358 µM; IC50 (MDA-MB-231 [3]): 7.2 µM; IC50 (MCF7 [4]): 11.3 µM
4 | NS(=O)(=O)c1ccc(NC(=O)CN2CCC(C(=O)NN=C3C(=O)Nc4ccc(Cl)cc43)CC2)cc1 | 0.0143 | 
5 | CC(C(=O)Nc1ccc(S(N)(=O)=O)cc1)N1CCCC(C(=O)N/N=C2\C(=O)Nc3cc(Br)ccc32)C1 (centres undefined) | 0.0098 | 
6 | CC(C(=O)Nc1ccc(S(N)(=O)=O)cc1)N1CCCC(C(=O)N/N=C2\C(=O)Nc3ccccc32)C1 (centres undefined) | 0.0036 | IC50 [2]: 0.204 µM; Activity (MDA-MB-231 [5]): 265 pg/mL; Activity (MDA-MB-231 [6]): 3.31 ng/mL; Activity (MDA-MB-231 [7]): 509 pg/mL; Activity (MDA-MB-231 [8]): 76%; IC50 (MDA-MB-231 [3]): 4.08 µM; IC50 (MCF7 [4]): 10 µM
7 | COc1ccc2c(c1)NC(=O)C2=NNC(=O)C1CCCN(CC(=O)Nc2ccc(S(N)(=O)=O)cc2)C1 (centres undefined) | 0.019 | 
8 | NS(=O)(=O)c1ccc(NC(=O)CN2CCCC(C(=O)N/N=C3\C(=O)Nc4cc(Br)ccc43)C2)cc1 (centres undefined) | 0.0659 | 
9 | NS(=O)(=O)c1ccc(NC(=O)CN2CCCC(C(=O)N/N=C3\C(=O)Nc4ccccc43)C2)cc1 (centres undefined) | 0.0528 | 
10 | Cc1ccc2c(c1)NC(=O)/C2=N\NC(=O)C1CCCN(CC(=O)Nc2ccc(S(N)(=O)=O)cc2)C1 (centres undefined) | 0.0158 | 
11 | CN1C(=O)/C(=N\NC(=O)C2CCCN(CC(=O)Nc3ccc(S(N)(=O)=O)cc3)C2)c2ccccc21 (centres undefined) | 0.0335 | 
12 | CC(C(=O)Nc1ccc(S(N)(=O)=O)cc1)N1CCCC(C(=O)N/N=C2\C(=O)Nc3cc(F)ccc32)C1 (centres undefined) | 0.0051 | 
13 | CC(C(=O)Nc1ccc(S(N)(=O)=O)cc1)N1CCCC(C(=O)N/N=C2\C(=O)N(Cc3ccc(F)cc3)c3ccccc32)C1 (centres undefined) | 0.0098 | 
14 | NS(=O)(=O)c1ccc(NC(=O)CN2CCC(C(=O)N/N=C3\C(=O)N(Cc4ccccc4)c4ccccc43)CC2)cc1 | 0.0128 | 
15 | NS(=O)(=O)c1ccc(NC(=O)CN2CCC(C(=O)NN=C3C(=O)Nc4ccccc43)CC2)cc1 | 0.0248 | 
16 | NS(=O)(=O)c1ccc(NC(=O)CN2CCC(C(=O)N/N=C3\C(=O)Nc4ccc(F)cc43)CC2)cc1 | 0.0062 | IC50 [2]: 0.811 µM; IC50 (MDA-MB-231 [3]): 18.9 µM; IC50 (MCF7 [4]): 29.3 µM
17 | NS(=O)(=O)c1ccc(NC(=O)CN2CCCC(C(=O)N/N=C3\C(=O)Nc4cc(Cl)ccc43)C2)cc1 (centres undefined) | 0.0221 | 
18 | NS(=O)(=O)c1ccc(NC(=O)CN2CCCC(C(=O)NN=C3C(=O)Nc4cc(F)ccc43)C2)cc1 (centres undefined) | 0.0354 | 
19 | O=C(CN1C(=O)S/C(=C2/C(=O)Nc3ccccc32)C1=O)Nc1ccccc1 |  | IC50 (Caco-2): 9.3 µM
20 | NS(=O)(=O)c1ccc(NC(=O)CN2CCC(C(=O)NN=C3C(=O)Nc4ccc(Br)cc43)CC2)cc1 | 0.0279 | 
21 | NS(=O)(=O)c1ccc(NC(=O)CN2CCCC(C(=O)N/N=C3\C(=O)N(Cc4ccccc4)c4ccccc43)C2)cc1 (centres undefined) | 0.0214 | 
22 | CC(C(=O)Nc1ccc(S(N)(=O)=O)cc1)N1CCCC(C(=O)N/N=C2\C(=O)N(Cc3ccc(Cl)cc3)c3ccccc32)C1 (centres undefined) | 0.0192 | 
23 | O=c1[nH]cc(F)c(=O)[nH]1 [FLUOROURACIL] |  | IC50 (MDA-MB-231 [3]): 8.7 µM; IC50 (MCF7 [4]): 5.17 µM
